Patent US20070060605A1, “Compositions and methods for inhibiting platelet activation and thrombosis” (priority 2001, published 2007)
Like-named read-outs stand apart in the source and are kept apart here.

Assays:
Format in all cases: cell-based, human
[1] = test system: platelets; test: Agonist-induced platelet granule secretion / activation (P-selectin expression by flow cytometry; ADP/ATP release); conditions: for Inhibition of PMA-induced platelet responses: even at millimolar concentrations
Method: In order to monitor ATP release, a cocktail of 100 μM SFLLR (synthesized using solid phase Fmoc chemistry on an Applied Biosystems model 430A peptide synthesizer) and 3 mg/ml of luciferin/luciferase (Sigma, St. Louis, Mo.) in a volume of 10 μl is added to 20 μl of PRP. Samples are immediately analyzed for luminescence. Activated platelets supply the ATP necessary for luminescence of the luciferin/luciferase assay. Assays can be performed at high throughput through use of a microtiter plate system, e.g., 384-well plates and a Multidrop 384 (Thermo Labsystems, Helsinki), read with a high density imaging system, e.g., the Tundra system (Imaging Research, St. Catherine's, Ontario).
(§1) In order to assay platelet activation by cell surface marker expression, fresh PRP is isolated from donors who have not ingested aspirin for two weeks prior to donation. PRP (40 μl) is incubated with known or suspected inhibitor in DMSO or DMSO alone for 15 min. The sample is then incubated with the indicated agonist (e.g., SFLLR) for 10 min. Following incubation of the sample with the indicated agonist, 10 μl of reaction mixture is transferred to 5 μl of phycoerythrin (PE)-conjugated AC 1.2 anti-P-selectin antibody (for assessment of P-selectin surface expression) or fluorescein isothiocyanate (FITC)-conjugated PAC-1 antibody (for assessment of GPIIbIIIa activation). PBS (500 μl) is added to the sample after a 20 min incubation and the platelets are analyzed immediately by flow cytometry. Flow cytometry can be performed using, for example, a Becton-Dickinson FACSCalibur flow cytometer or its equivalent. Fluorescent channels are set at logarithmic gain. Ten thousand particles are acquired for each sample. A 530/30 band pass filter is used for FL-1 fluorescence. A 585/42 band pass filter is used for FL-2 fluorescence. FITC is measured in the FL-1 channel and PE is measured in the FL-2 channel. Data are analyzed using, for example, CellQuest software on a Macintosh PowerPC, or their equivalents.
Compounds were tested for the ability to inhibit agonist-induced ADP/ATP release from platelet dense granules using a luciferin-luciferase reporter system. In this assay, compounds were incubated with platelet-rich plasma (PRP) for 30 min. A cocktail of the platelet agonist and luciferin-luciferase was then added to the wells. Plates were immediately analyzed using a Tundra high density luminescence imager. […] As a control, compounds were also screened in a platelet-free assay for the ability to inhibit luciferin-luciferase upon exposure to ATP.
Each of the compounds was tested for inhibition of platelet activation in response to the agonists SFLLR (a thrombin mimic), U46619 (a thromboxane A2 mimic), ADP and the phorbol ester PMA.
(§2) Compounds were also tested by flow cytometry for the inhibition of SFLLR-induced GPIIbIIIa activation and P-selectin expression. In these experiments, freshly obtained PRP was prepared from healthy volunteers who had not ingested aspirin for two weeks prior to donation. Forty μl of PRP was incubated with inhibitor in DMSO or DMSO alone for 15 min. The sample was then incubated with the indicated agonist for 10 min. Following incubation of the sample with the indicated agonist, 10 μl of reaction mixture was transferred to 5 μl of PE-conjugated AC1.2 anti-P-selectin antibody (for assessment of P-selectin surface expression) or FITC-conjugated PAC-1 antibody (for assessment of GPIIbIIIa activation). PBS (500 μl) was added to the sample after a 20 min incubation and the platelets were analyzed immediately by flow cytometry. Flow cytometry was performed using a Becton-Dickinson FACSCalibur flow cytometer. Fluorescent channels were set at logarithmic gain. Ten thousand particles were acquired for each sample. A 530/30 band pass filter was used for FL-1 fluorescence. A 585/42 band pass filter was used for FL-2 fluorescence. FITC was measured in the FL-1 channel and PE was measured in the FL-2 channel.

[2] = test system: platelet GPIIbIIIa; test: SFLLR-induced GPIIbIIIa activation (PAC-1 antibody, flow cytometry); conditions: Homo sapiens, Platelet; agonist SFLLR; read-out: IC50s of inhibition of platelet GPIIbIIIa activation induced with SFLLR
Method: as §1
as §2, with “channel. Data were analyzed using CellQuest software on a MacIntosh PowerPC.” for “channel.”

[3] = test system: PGE1-induced cAMP levels in platelets; test: Augmentation of PGE1-induced cAMP levels in platelets; conditions: no single concentration
Method: One frequent target of anti-platelet agents is phosphodiesterase III (PDE III). […] The assay is performed as described by Liao et al., 1998, Eur J Pharmacol 349,107-114, incorporated herein by reference. Briefly, aliquots of PRP are exposed to increasing concentrations of the agent for 20 minutes. The PRP is then challenged with 1 μM PGE1 for 2 min The reaction is stopped by adding 10 mM EDTA, followed immediately by boiling for 2 min. The mixture is cooled to 4° C. and the precipitated protein is pelleted. cAMP content in the supernatant is quantitated using an enzyme immunoassay kit (Pharmacia-Amersham, N.J.) according to the instructions of the manufacturer.
In order to assess whether the compounds useful according to the invention might act through inhibition phosphodiesterase III, each was tested for its effect on PGE1-induced cAMP increase. Determination of platelet cAMP levels was performed as described by Liao et al., 1998, supra. Aliquots of PRP were exposed to increasing concentrations of the indicated compounds for 20 min. PRP was then challenged with 1 μM PGE1 for 2 min. The reaction was stopped with the addition of 10 mM EDTA followed immediately by boiling for 2 min. The mixture was then cooled to 4° C. and the precipitated protein was pelleted. Cyclic AMP content in the supernatant was then quantified using an enzyme immunoassay kit (Pharmacia-Amersham, N.J.) according to the instructions of the manufacturer.

[4] = Homo sapiens, Platelet, agonist SFLLRN/SFLLR, human platelets, read-out: IC50 SFLLRN-induced P-selectin expression, flow cytometry
[5] = Homo sapiens, Platelet, agonist ADP, read-out: IC50s of inhibition of platelet granule secretion induced with ADP
[6] = Homo sapiens, Platelet, agonist PMA, read-out: IC50s of inhibition of platelet granule secretion induced with PMA
[7] = Homo sapiens, Platelet, agonist U-46619, read-out: IC50s of inhibition of platelet granule secretion induced with U-46619
[8] = Homo sapiens, Platelet, agonist SFLLR, read-out: IC50s of inhibition of platelet granule secretion induced with SFLLR
[9] = Homo sapiens, Platelet, agonists U-46619, ADP, PMA, read-out: IC50 U-46619-, ADP-, and PMA-induced platelet responses
[10] = Homo sapiens, Platelet, agonists SFLLR and U-46619, read-out: IC50 SFLLR- and U-46619-induced activation

Structure (SMILES)	IC50 [1, 5] [µM]	IC50 [1, 6] [µM]	IC50 [1, 7] [µM]	IC50 [1, 8] [µM]	IC50 [2] [µM]	further results
CCCCn1c2c(c(=N)c3ccccc31)CCC2 [JF081204{4C}]						IC50 [1, 4]: 2 to 150 µM
CCOC(=O)C1(C2(O)C(=O)c3ccccc3C2=O)CCCC1=O (centres unmarked) [1-(2-hydroxy-1,3-dioxo-indan-2-yl)-2-oxo-cyclopentanecarboxylic acid ethyl ester]	50	> 1000	30	50	50	Inhibition of PMA-induced platelet responses ([1]; agonist PMA): no activity
CCCCCn1c2c(c(=N)c3ccccc31)CCC2 [III]						IC50 [1, 9]: ~500 µM
CCCn1c2c(c(=N)c3ccccc31)CCC2 [JF081204{3C}]						IC50 [1, 4]: 2 to 150 µM
CCCCn1c2c(c(=N)c3ccccc31)CCC2 [II]						IC50 [1, 9]: ~500 µM
CC(=O)OC(CC(=O)c1ccc(Cl)cc1Cl)C(Cl)(Cl)Cl (centres unmarked) [acetic acid 3-(2,4-dichlorophenyl)-3-oxo-1-trichloromethyl-propyl ester]	200	200	20	50	30	IC50 ([1]; Homo sapiens, Platelet, agonists ADP and PMA, read-out: IC50 ADP- and PMA-induced activation): ~200 µM; IC50 [1, 10]: 20 to 50 µM
Nc1cc2cccnc2c2ncccc12 [[1,10]Phenanthroline-5-ylamine]	50	> 1000	30	50	50	IC50 ([1]; agonist ADP, read-out: IC50s of inhibition of platelet granule secretion induced with ADP): 100 µM; Inhibition of PMA-induced platelet responses ([1]; agonist PMA): did not inhibit; Effect on PGE1-stimulated cAMP levels in platelets [3]: failed to augment
CC1CC(=O)NN=C1c1ccc(Cl)cc1 (centres unmarked) [Structure 9, 6-(4-chlorophenyl)-5-methyl-4,5-dihydro-5 methyl-3(2H)-pyridazinone]	8					ADP-induced responses inhibited less effectively than SFLLR and U46619 responses ([1]; ADP vs SFLLR and U46619): approximately 20 fold; IC50 [1, 10]: 0.3 µM; Inhibition of PMA-induced platelet activation ([1]; agonist PMA): did not inhibit
Cn1cc(/C=N/NC(N)=O)c2ccccc21 [2-[(1-methyl-1H-indol-3-yl)methylene]-hydrazinecarboxamide]	1000	1000	20	50		IC50 [1, 10]: 20 to 50 µM; Effect on ADP- and PMA-induced activation ([1]; agonists ADP and PMA): little effect; Effect on PGE1-stimulated cAMP levels in platelets [3]: augmented
O=C1NC(=O)N(c2cccc3ccccc23)C(=O)/C1=C\c1ccco1 [5-(2-furanylmethylene)-1-1-naphthalenyl)-2,4,6(1H, 3H, 5H)-pyrimidinetrione]					100	IC50 ([1]; Homo sapiens, Platelet, read-out: IC50s of inhibition of platelet granule secretion induced with ADP): 60 µM; IC50 ([1]; Homo sapiens, Platelet, read-out: IC50s of inhibition of platelet granule secretion induced with PMA): 150 µM; IC50 ([1]; Homo sapiens, Platelet, read-out: IC50s of inhibition of platelet granule secretion induced with SFLLR): 100 µM; IC50 ([1]; Homo sapiens, Platelet, read-out: IC50s of inhibition of platelet granule secretion induced with U-46619): 50 µM
CCCn1c2c(c(=N)c3ccccc31)CCC2 [I]						IC50 [1, 9]: ~500 µM
O=C(CN1CCOCC1)N1c2ccccc2Sc2ccc(C(F)(F)F)cc21 [10H-phenothiazine, 10-(4-morpholinylacetyl)-2-(trifluoromethyl)]	150	85	100	80	50	
